In assay [1] the target is Sodium-dependent serotonin transporter (Rattus norvegicus, UniProt P31652). Briefly: Displacement of [3H]-citalopram from SERT in Sprague-Dawley rat midbrain after 60 mins by scintillation counting method.
Another assay concerns the target D(2) dopamine receptor (Homo sapiens, UniProt P14416). The experiment in a line: Displacement of [3H]N-methylspiperone from human dopamine D2 receptor expressed in HEK293 cell membranes after 1 hr by scintillation counting method. In general terms: In a radioligand displacement assay an active substance lowers the binding of a labelled ligand.
Assay [2] addresses T1, D(4) dopamine receptor (Homo sapiens, UniProt P21917).
T1 sequence (P21917 whole entry): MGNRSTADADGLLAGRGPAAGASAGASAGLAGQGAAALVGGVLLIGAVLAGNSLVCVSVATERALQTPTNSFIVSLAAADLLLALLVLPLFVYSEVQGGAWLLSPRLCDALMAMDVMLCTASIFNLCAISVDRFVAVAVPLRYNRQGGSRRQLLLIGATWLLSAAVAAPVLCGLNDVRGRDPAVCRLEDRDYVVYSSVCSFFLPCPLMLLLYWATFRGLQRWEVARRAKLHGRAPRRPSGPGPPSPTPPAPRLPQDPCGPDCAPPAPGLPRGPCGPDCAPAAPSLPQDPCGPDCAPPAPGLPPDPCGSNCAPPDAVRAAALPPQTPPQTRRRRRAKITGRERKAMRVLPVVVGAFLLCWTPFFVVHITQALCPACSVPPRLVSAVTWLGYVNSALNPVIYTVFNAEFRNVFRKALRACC
Briefly: Antagonist activity at human SP/Myc epitope-tagged dopamine D4 receptor expressed in HEK293T cells assessed as inhibition of dopamine-induced RLuc8-fused Galphai1 activation preincubated for 15 mins followed by dopamine induction measured after 2 mins by BRET assay. The format is cell-based, HEK-293T. On the technique in general: BRET reads energy transfer from a luciferase to a nearby fluorophore.

Assay [3] deals with Beta-2 adrenergic receptor (Homo sapiens, UniProt P07550). Briefly: Displacement of [3H]CGP12177 from human recombinant beta2 adrenergic receptor expressed in HEK293 cell membranes after 90 mins by beta counting method.
A further assay is filed under the species Homo sapiens. The experiment in a line: Selectivity ratio of Ki for human dopamine D2 receptor to Ki for human dopamine D4 receptor.
Assay [4] deals with T2, Alpha-1D adrenergic receptor (Homo sapiens, UniProt P25100).
T2 sequence (P25100 whole entry): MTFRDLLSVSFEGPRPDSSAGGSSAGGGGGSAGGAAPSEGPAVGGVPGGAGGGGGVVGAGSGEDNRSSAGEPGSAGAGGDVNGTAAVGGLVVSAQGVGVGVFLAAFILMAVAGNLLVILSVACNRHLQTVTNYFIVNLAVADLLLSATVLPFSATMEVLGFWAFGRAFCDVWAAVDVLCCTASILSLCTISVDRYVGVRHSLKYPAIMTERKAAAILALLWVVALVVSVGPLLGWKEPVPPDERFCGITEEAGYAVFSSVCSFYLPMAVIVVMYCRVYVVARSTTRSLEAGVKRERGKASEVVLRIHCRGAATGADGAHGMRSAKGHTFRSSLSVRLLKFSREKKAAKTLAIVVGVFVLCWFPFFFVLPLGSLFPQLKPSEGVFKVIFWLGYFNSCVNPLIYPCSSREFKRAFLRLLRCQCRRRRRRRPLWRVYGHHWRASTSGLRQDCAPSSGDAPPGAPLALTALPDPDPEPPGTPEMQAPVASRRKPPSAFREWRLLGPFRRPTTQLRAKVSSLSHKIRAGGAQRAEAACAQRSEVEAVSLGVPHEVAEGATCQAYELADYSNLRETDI
Briefly: Displacement of [3H]prazosin from human recombinant alpha-1D adrenergic receptor expressed in CHO cell membranes after 30 mins by liquid scintillation counting method.

In assay [5] the target is Beta-1 adrenergic receptor (Homo sapiens, UniProt P08588). Briefly: Displacement of [3H]CGP12177 from human recombinant beta1 adrenergic receptor expressed in HEK293 cell membranes after 90 mins by beta counting method.
The target in assay [6] is T3, Alpha-1A adrenergic receptor (Homo sapiens, UniProt P35348).
T3 sequence (P35348 whole entry): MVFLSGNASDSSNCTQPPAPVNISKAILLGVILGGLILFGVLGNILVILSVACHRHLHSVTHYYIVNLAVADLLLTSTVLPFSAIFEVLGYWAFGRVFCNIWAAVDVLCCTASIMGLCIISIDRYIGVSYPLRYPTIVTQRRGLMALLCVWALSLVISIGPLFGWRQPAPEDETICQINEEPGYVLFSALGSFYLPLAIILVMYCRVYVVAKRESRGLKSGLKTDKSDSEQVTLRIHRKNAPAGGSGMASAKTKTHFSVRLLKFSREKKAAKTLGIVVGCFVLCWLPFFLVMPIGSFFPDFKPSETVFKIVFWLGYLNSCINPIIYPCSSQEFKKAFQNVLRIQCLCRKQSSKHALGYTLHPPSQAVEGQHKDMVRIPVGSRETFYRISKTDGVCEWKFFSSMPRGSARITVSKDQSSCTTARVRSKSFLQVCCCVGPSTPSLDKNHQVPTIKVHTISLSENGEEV
Briefly: Displacement of [3H]prazosin from human recombinant alpha-1A adrenergic receptor expressed in CHO cell membranes after 30 mins by liquid scintillation counting method.

Assay [7] has as its target T4, Alpha-1B adrenergic receptor (Homo sapiens, UniProt P35368).
T4 sequence (P35368 whole entry): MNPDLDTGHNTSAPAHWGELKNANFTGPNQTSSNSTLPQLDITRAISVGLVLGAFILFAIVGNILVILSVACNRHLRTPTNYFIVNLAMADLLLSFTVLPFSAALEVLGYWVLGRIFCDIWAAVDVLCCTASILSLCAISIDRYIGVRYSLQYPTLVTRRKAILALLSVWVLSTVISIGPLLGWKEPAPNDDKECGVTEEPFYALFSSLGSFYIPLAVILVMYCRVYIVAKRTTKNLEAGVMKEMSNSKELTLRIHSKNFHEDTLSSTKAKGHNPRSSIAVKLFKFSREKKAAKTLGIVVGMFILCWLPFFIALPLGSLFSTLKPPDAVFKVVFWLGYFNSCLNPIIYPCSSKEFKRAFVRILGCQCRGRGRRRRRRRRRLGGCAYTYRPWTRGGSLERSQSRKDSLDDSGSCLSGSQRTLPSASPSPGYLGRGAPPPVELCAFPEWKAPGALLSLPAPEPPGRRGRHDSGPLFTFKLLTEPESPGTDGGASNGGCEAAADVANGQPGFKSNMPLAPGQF
The experiment in a line: Displacement of [3H]prazosin from human recombinant alpha-1B adrenergic receptor expressed in CHO cell membranes after 30 mins by liquid scintillation counting method.

In assay [8] the target is Sigma non-opioid intracellular receptor 1 (Cavia porcellus, UniProt Q60492). Briefly: Displacement of [3H](+)-pentazocine from sigma1 receptor in Hartley guinea pig brain cortex after 120 mins by scintillation counting method.
The target of assay [9] is Sodium-dependent dopamine transporter (Rattus norvegicus, UniProt P23977). The experiment in a line: Displacement of [3H]WIN 35,428 from DAT in Sprague-Dawley rat striatum after 120 mins by scintillation counting method.
In assay [10] the target is T1, D(4) dopamine receptor. Briefly: Antagonist activity at human SP/Myc epitope-tagged dopamine D4 receptor expressed in HEK293T cells assessed as inhibition of dopamine-induced mVenus-fused beta-arrestin2 recruitment preincubated for 15 mins followed by dopamine induction measured after 2 mins by BRET assay. The format is cell-based, HEK-293T. (In general: Arrestin recruitment assays detect the binding of arrestin to an activated receptor.)

A further assay deals with D(3) dopamine receptor (Homo sapiens, UniProt P35462). The experiment in a line: Displacement of [3H]N-methylspiperone from human dopamine D3 receptor expressed in HEK293 cell membranes after 1 hr by scintillation counting method.
Assay [11] concerns the target T1, D(4) dopamine receptor. The experiment in a line: Displacement of [3H]N-methylspiperone from human dopamine D4 receptor expressed in HEK293 cell membranes after 1 hr by scintillation counting method.
The target of assay [12] is T5, Muscarinic acetylcholine receptor M4 (Homo sapiens) (UniProt P08173).
T5 sequence (whole entry): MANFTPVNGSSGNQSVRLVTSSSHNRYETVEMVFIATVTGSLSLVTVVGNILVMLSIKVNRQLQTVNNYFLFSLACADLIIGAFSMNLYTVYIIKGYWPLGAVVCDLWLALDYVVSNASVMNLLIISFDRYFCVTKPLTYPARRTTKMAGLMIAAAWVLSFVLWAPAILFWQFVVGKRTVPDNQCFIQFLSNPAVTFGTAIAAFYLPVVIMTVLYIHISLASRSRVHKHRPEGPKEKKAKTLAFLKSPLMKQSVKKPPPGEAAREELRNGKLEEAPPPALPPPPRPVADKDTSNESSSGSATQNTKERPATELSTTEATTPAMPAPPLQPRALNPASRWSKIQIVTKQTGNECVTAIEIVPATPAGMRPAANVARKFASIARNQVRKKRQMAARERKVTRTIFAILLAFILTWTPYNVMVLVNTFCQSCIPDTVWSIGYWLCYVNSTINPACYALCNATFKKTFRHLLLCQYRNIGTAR
The experiment in a line: Antagonist activity at human SP/Myc epitope-tagged muscarinic M4 receptor expressed in HEK293T cells assessed as inhibition of carbachol-induced RLuc8-fused Galphaq activation preincubated for 15 mins followed by carbachol induction measured after 2 mins by BRET assay. Conditions: HEK-293T. The format is cell-based.

For assay [13], the target named is T5, Muscarinic acetylcholine receptor M4 (Homo sapiens). The experiment in a line: Antagonist activity at human SP/Myc epitope-tagged muscarinic M4 receptor expressed in HEK293T cells assessed as inhibition of carbachol-induced mVenus-fused beta-arrestin2 recruitment preincubated for 15 mins followed by carbachol induction measured after 2 mins by BRET assay. As to conditions: HEK-293T. The format is cell-based.

Assay [14] addresses T6, Muscarinic acetylcholine receptor M1 (Homo sapiens) (UniProt P11229).
T6 sequence (whole entry): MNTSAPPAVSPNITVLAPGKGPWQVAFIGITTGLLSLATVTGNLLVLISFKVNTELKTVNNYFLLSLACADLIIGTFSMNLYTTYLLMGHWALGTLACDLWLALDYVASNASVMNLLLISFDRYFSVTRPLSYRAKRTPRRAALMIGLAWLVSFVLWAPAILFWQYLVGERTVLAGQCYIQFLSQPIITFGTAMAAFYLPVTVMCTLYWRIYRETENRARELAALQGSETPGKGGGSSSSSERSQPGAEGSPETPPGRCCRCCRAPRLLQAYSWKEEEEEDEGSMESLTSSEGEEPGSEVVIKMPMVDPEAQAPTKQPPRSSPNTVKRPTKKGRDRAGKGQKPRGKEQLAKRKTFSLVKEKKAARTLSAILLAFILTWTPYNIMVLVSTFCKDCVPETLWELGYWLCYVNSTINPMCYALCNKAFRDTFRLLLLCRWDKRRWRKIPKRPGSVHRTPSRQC
Briefly: Antagonist activity at human SP/Myc epitope-tagged muscarinic M1 receptor expressed in HEK293T cells assessed as inhibition of carbachol-induced mVenus-fused beta-arrestin2 recruitment preincubated for 15 mins followed by carbachol induction measured after 2 mins by BRET assay. The format is cell-based. Conditions: HEK-293T.

Assay [15] addresses T6, Muscarinic acetylcholine receptor M1 (Homo sapiens). The experiment in a line: Antagonist activity at human SP/Myc epitope-tagged muscarinic M1 receptor expressed in HEK293T cells assessed as inhibition of carbachol-induced RLuc8-fused Galphaq activation preincubated for 15 mins followed by carbachol induction measured after 2 mins by BRET assay. The format is cell-based. As to conditions: HEK-293T.

Sequence of Sodium-dependent serotonin transporter (P31652 whole entry): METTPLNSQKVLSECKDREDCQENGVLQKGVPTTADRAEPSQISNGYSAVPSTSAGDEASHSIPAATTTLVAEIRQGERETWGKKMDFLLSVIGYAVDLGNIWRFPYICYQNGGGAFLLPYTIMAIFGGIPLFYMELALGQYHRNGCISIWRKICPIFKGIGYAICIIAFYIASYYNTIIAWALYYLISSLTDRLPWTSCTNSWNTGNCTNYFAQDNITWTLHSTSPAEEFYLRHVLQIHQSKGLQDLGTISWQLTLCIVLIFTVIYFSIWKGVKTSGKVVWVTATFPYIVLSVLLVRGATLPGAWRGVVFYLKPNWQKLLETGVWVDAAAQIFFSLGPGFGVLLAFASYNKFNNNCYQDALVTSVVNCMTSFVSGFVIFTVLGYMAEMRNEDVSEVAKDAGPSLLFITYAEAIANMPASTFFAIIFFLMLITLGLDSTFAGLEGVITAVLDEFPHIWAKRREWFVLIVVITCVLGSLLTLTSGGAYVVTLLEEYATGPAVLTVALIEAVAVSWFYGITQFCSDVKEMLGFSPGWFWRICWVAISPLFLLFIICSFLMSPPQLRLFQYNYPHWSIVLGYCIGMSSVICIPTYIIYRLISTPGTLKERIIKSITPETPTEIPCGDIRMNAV
Sequence of Sodium-dependent dopamine transporter (P23977 whole entry, the tested form may be a part): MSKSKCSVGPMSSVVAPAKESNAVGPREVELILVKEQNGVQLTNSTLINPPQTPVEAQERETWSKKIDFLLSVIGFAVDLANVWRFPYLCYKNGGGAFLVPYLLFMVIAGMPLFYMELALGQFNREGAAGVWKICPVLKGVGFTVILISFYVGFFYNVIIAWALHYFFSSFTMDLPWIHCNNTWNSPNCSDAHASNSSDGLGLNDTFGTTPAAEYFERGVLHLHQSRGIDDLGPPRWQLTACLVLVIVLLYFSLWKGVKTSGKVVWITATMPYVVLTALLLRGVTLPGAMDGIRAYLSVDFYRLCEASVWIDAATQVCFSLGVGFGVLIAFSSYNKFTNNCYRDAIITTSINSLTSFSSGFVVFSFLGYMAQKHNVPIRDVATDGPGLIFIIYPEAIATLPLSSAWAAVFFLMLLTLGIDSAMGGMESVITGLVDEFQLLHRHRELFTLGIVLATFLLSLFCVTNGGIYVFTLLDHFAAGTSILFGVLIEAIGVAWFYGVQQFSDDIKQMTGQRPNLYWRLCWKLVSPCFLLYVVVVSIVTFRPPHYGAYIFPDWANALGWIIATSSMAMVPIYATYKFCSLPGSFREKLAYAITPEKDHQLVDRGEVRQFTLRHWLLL
Sequence of Beta-2 adrenergic receptor (P07550 whole entry): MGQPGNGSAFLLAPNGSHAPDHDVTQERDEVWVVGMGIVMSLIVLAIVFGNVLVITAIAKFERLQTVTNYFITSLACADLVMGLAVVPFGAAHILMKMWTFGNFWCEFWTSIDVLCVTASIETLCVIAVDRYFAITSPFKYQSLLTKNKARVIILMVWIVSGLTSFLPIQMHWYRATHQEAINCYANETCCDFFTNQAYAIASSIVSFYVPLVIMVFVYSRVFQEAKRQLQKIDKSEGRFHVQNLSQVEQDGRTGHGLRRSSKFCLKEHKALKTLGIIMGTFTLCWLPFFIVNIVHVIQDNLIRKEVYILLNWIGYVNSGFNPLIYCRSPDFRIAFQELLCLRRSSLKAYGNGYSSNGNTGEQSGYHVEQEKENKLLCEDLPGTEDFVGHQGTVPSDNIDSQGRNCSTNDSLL
Sequence of D(2) dopamine receptor (P14416 whole entry): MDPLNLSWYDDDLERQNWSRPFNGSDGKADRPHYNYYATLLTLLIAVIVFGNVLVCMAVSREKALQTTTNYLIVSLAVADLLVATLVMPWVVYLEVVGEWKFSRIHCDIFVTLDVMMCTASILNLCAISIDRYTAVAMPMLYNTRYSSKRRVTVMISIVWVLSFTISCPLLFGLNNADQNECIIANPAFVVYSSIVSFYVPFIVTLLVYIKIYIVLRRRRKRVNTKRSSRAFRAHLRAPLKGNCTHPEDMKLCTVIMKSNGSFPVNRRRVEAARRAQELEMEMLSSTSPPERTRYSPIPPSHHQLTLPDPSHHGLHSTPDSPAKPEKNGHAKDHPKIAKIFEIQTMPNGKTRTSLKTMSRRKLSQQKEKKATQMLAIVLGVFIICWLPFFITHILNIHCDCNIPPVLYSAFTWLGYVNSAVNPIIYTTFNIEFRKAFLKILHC
Sequence of Beta-1 adrenergic receptor (P08588 whole entry): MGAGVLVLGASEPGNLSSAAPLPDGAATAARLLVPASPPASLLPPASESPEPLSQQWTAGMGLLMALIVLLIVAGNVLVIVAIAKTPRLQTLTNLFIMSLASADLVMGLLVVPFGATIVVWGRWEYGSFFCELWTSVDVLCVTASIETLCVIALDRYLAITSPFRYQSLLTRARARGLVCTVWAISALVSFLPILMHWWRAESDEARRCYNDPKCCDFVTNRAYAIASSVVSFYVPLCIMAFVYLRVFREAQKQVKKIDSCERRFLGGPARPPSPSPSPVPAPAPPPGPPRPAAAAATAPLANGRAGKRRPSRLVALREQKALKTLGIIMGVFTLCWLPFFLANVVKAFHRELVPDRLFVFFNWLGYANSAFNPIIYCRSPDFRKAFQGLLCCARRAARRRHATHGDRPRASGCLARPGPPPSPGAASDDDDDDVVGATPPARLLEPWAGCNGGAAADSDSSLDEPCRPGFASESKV
Sequence of Sigma non-opioid intracellular receptor 1 (Q60492 whole entry): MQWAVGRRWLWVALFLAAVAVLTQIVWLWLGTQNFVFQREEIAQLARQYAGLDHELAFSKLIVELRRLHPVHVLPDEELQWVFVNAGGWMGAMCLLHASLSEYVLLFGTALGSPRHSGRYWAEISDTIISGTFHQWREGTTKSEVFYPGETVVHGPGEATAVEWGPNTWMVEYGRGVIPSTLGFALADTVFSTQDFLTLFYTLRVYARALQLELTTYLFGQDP
Sequence of D(3) dopamine receptor (P35462 whole entry): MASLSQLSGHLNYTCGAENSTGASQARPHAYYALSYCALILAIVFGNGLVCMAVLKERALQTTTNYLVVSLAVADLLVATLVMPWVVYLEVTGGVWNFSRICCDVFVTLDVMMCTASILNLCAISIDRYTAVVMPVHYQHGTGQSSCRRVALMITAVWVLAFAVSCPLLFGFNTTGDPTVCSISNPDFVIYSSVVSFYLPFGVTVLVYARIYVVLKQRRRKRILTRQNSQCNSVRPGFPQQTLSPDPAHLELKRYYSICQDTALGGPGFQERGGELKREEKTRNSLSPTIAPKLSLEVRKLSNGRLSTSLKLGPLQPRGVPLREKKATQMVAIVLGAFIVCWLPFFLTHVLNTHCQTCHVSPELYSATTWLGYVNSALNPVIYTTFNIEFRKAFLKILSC

Consider `CCCCC1CCN(CCCN2C(=O)CCc3ccccc32)CC1`, for which the Ki in assay [1] is 8910 nM; on D(2) dopamine receptor, 676 nM; in [3], 43700 nM; in [4], 1000 nM; in assay [5] it was 47900 nM; in assay [6] it was 437 nM. The inhibitory constant (Ki) in assay [7] is 776 nM; in [8] it was 7.24 nM; in [9], 3390 nM; on D(3) dopamine receptor, 617 nM; at D(4) dopamine receptor [11], 0.977 nM. Further, the concentration for half-maximal inhibition (IC50) at D(4) dopamine receptor [2] is 117 nM; on D(4) dopamine receptor [10], 6.03 nM. Further, the Ratio Ki in the assay listed under Homo sapiens came out at 691.

For the compound `CN1[C@@H]2C[C@@H](OC(=O)[C@H](CO)c3ccccc3)C[C@H]1[C@@H]1O[C@H]12`, the Imax in [12] came out at 79%; in assay [13], 73%; in [14], 76%; in assay [15] it was 71%.

Usually Ki stands for a measure of affinity in units of concentration, obtained from inhibition or displacement. By IC50 is commonly meant the concentration that gives 50% inhibition.
